Data: patent publication US6337316B1, “Pharmaceutical compositions thereof, and methods of using same” (Applied Research Systems ARS Holding N.V., priority 1997, dated 2002)
“Also recorded” adds a separate entry of the source. Peptide text beside a SMILES is read from it.

Experiments:
[1] = tested on: murine MLR splenocyte proliferation; experiment: One-way murine MLR (C57Bl/6 stimulators, BalB/c responders); type: cell-based, mouse; details: 10 μg/ml CTLA-4Ig; stated as similar to AT 199.3
Description: One-way murine MLRs were set up using the C57Bl/6 mice splenocytes as stimulators and BalB/c splenocytes as responders.
Spleens were excised from mice (Jackson Laboratories, Bar Harbor, Ma.) 6-8 weeks of age. Cells were separated from the capsule using sterile frosted glass slides and washed in cold RPMI 1640 1×. Red blood cells were lysed by treating the spleen cell suspension with cold Tris ammonium chloride buffer (2 ml/spleen) for 3 min on ice. After lysis, the cells were washed 2× in 5 volumes of complete medium (RPMI 1640 containing 10 % heat-inactivated FBS, 2 mM glutamine, 50 μM 2-mercaptoethanol, 100 U/ml penicillin-100 μg/ml strepcomycin, 1 mM sodium pyruvate and 1 mM non-essential amino acids).
Plastic-adherent cells were removed from splenocytes of BalB/c mice by adjusting the cell concentration to 3×10^6 cells/ml in complete medium and incubating the cells for 1.5-2 h at 37° C. in T-75 flasks. Following incubation non-adherent cells were collected by gently washing the flasks and the percent recovery determined (60-70%). Bal b/C responder cells were stored on ice until mitomycin C treatment of stimulator cells was completed.
Following RBC lysis splenocytes of C57Bl/6 mice were adjusted to 2-4×10^6 cells/ml in complete medium and treated with mitomycin C (50 μg/ml) for 30 min at 37° C. in a humidified 5% CO2 in air atmosphere. Following treatment, cells were washed with 5 volumes of complete medium 3×, and viable counts determined using trypan blue.
To set up autologous stimulation controls some responder cells were also treated with mitomycin C as mentioned above.
For the assay, responder and stimulator cells were plated at 10^5 cells/well in 96-well round bottom plates. […]
Appropriate scrambled peptide controls and matrix controls were included in every assay. […] Proliferation of the cells was determined by pulsing the wells with 3H-Tdr (1 μCi/well) For the last 6 h of the assay. Plates were harvested and the counts incorporated determined as described above.

[2] = tested on: Th1-type cytokines and antigen specific T cells; details: delayed administration of the protein; cited from earlier work
[3] = molecular target: T1, B7-1 (Homo sapiens, UniProt P33681); details: CTLA-4Ig vs CD28Ig, higher affinity; cited from earlier work
T1 sequence (P33681 35-288): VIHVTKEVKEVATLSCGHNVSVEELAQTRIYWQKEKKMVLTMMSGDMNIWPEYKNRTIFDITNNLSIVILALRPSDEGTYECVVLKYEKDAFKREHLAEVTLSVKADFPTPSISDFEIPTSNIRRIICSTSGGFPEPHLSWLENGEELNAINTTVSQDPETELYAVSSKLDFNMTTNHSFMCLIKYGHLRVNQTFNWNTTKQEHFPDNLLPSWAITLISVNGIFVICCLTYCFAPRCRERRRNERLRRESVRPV

[4] = tested on: PHA activated PBLs; experiment: Mitogen (PHA) stimulation assay of PBL, 3H-Tdr incorporation; type: cell-based, human; details: for effect on PHA activation of PBLs / PHA stimulated T cells: in words
Description: For these assays, ficoll-hypaque purified PBMC (10^5 cells/well) were incubated in flat-bottom 96-well tissue culture plates with indicated concentrations or phytohemagglutinin (PHA; 5, 2.5, 1.25, 0.5 μg/ml) for 3 days at 37° C. in a humidified 5% CO2/air incubator. Cells were incubated in the presence or absence of various concentrations of CTLA-4 Ig, purified anti-CD80 mAb (1 μg/ml), anti-CD86 mAb (1 μg/ml), and peptides 199 and 201 serially diluted from 100 μM to 12.5 μM for the period of the assay.
Proliferation of the cells was determined by pulsing the wells with ^3H-Tdr (1 μCi/well) for the last 6 h of the assay. Plates were harvested using a Tomtec plate harvester and the counts incorporated determined using a Wallac microbetaplate plus reader.
AT 199 was tested for inhibition of PHA activated PBLs. PHA activation, while not specifically targeted at the CD28 pathway, has some dependence on this pathway depending on the concentration of PHA used to activate lymphocytes. To determine the […] of phytohemagglutinin (PHA) activation on CD28 signaling, CTLA-4Ig was included in each assay.
In order to test for an unanticipated mechanism of inhibition, AT 199 was assayed using PHA-stimulation of PBLs. Phytohemagglutinin (PHA) is a lectin extracted from the red kidney bean and is a mixture of five tetrameric glycoprotein. PHA stimulates T cells in the presence of accessory cells (but not B cells) by cross-linking a variety of critical T cell surface molecules, including CD3, CD2, CD4, CD8 and LFA-1 (Geppert, 1992). The involvement of CD28 in this stimulation is dependent on the degree of crosslinking by PHA. At the appropriate concentration of PHA, the simultaneous engagement of cell surface receptors results in a proliferation response that can bypass the need for specific costimulatory signals such as CD28. This can be monitored by examining CTLA-4Ig inhibition of PHA mitogenesis.

[5] = tested on: primary peripheral blood lymphocytes (PBLs); experiment: Toxicity test on growing cell cultures; type: cell-based, human; details: 100 μM AT 199
Description: (§1) To determine if the activity of AT 199 was due to a specific effect on lymphocyte proliferation in the MLR or due to a non-specific inhibition of lymphocyte proliferation in general (i.e., toxicity), the toxicity of AT 199 was tested against THP-1, Jurkat, and resting and activated PBLs.
(§2) AT 199 and its control analogs were assayed for overt toxicity and non-specific inhibition. The peptides were added to growing cultures of THP-1 cells, Jurkat cells and primary peripheral blood lymphocytes (PBLs).

[6] = tested on: binding of CTLA-4Ig to B7 on Cess B cells; experiment: CTLA-4Ig/B7 binding assay on Cess B cells by FACS; details: FACS; assays of 3/24, 3/25, 4/5, 4/25; one symbol per assay
Description: +++ was assigned if the peptide tested gave >50% change in cpm in a dose dependent fashion. In addition to the MLR, these 34 peptides were also evaluated in a CTLA-4Ig/B7 binding assay in which the ability of these peptides to affect the binding of CTLA-4Ig to B7 on Cess B cells was examined by FACS analysis.
As with the MLR, a + or − was assigned to each peptide depending on its ability to effect CTLA-4Ig binding to Cess B cells; where − represents no change in binding, + represents a minor change of <10% in binding, and a ++ represents a change of >20% in binding.

[7] = tested on: lymphocyte proliferation in the human MLR; type: cell-based
Description: Whole blood from donors was obtained from Interstate Blood Bank, Memphis, Tenn. Blood specimens were handled in a biosafety level 2 containment facility as recommended for potentially infectious blood specimens in the CDC/NIH manual Biosafety in Microbiological and Biomedical Laboratories; 3rd edition, 1993, page 10. Peripheral blood mononuclear cells (PBMC) were separated from red blood cells and granulocytes by ficoll-hypaque purification. Whole peripheral blood was diluted 1:2 in PBS and 30 ml was overlayed onto 15 ml of ficoll-hypaque in 50 ml polypropylene tubes. The tubes were spun at 400×g for 30 min at 25° C. Following centrifugation, the interface between the upper plasma layer and the lower ficoll layer was collected, cells washed in RPMI-1640 2×, and viable counts determined using trypan blue. Cells to be used as responders in the assay were stored on ice until mitomycin C treatment of stimulator cells was completed.
PBMC, isolated as described above, to be used as stimulators in the assay were adjusted to 2-4×10^6 cells/ml in complete medium (RPMI 1640 containing 10% heat-inactivated human AB serum, 2 mM glutamine, 50 μM 2-mercaptoethanol and 100 U/ml penicillin-100 μg/ml streptomycin), and treated with mitomycin C (25 μg/ml) for 30 min in a 37° C. water bath. Following treatment, cells were washed with S volumes of complete medium 3×, and viable counts determine using trypan blue. To set up autologous stimulation controls some responder cells were also treated with mitomycin C as mentioned above.
Purified CTLA-4Ig fusion protein was produced, as described in Steurer et al. 1995, from a NS-1 cell line kindly donated by Dr. T. Strom (Beth Israel Hospital, Boston, Mass.) as a 1 mg/ml solution in sterile PBS. The protein was stored frozen at −80° C. Upon thawing, the aliquot was stored at 4° C. Purified peptides were lyophilized according to known procedures. Peptides were reconstituted in sterile PBS, pH 7.4 at 2 mM concentration, aliquoted in microfuge cubes and stored frozen at −20° C. For the assay, an aliquot of the peptide was thawed and diluted to 200 μM in complete medium.
For the one-way allogeneic mixed lymphocyte response (MLR) assay, responder cells were plated at 10^6 cells/well, and stimulator cells at 5×10^4 cells/well in 96-well round bottom plates. Cells were incubated with serial dilutions of the anti-CD4 Ab Leu 3A (1 μg/ml-0.06 μg/ml) in triplicate, or an isotype-matched control Ab. Cyclosporin A at 1 μg/ml was used as an additional control.
CTLA-4 Ig was serially diluted an.4 tested from 10 μg/ml to 0.15 μg/ml. Peptides were tested either directly or in the presence of a constant spiked-in dose of CTLA-4 Ig at 0.5 μg/ml. The plates were incubated at 37° C. in a humidified 5% CO2 atmosphere for 7 days.
Proliferation of the cells was determined by pulsing the wells with ^3H-Tdr (1 μCi/well) for the last 18 h of the assay. Plates were harvested using a Tomtec -late harvester and the counts incorporated determined using a Wallac microbetaplate plus reader.
A total of 34 peptides were tested for inhibition of lymphocyte proliferation in the human MLR. Each peptide was tested in a MLR at doses ranging from 12.5 to 100 μM. The activity of each peptide was identified by assigning a + and − tone peptide depending on its ability to inhibit lymphocyte proliferation in the MLR (cpms).

[8] = tested on: Jurkat cells; experiment: Toxicity test on growing cell cultures; type: cell-based; details: 100 μM AT 199
Description: as §1, §2

[9] = tested on: THP-1 cells; experiment: Toxicity test on growing cell cultures; type: cell-based; details: 100 μM AT 199
Description: as §1, §2

| Compound | inhibition of the murine MLR [1] | blunted expansion of antigen specific T cells [2] | reduction in Th1-type cytokines [2] | affinity for B7-1 relative to CD28Ig [3] | inhibition of PHA activation ([4]; 10 μg/ml CTLA-4Ig, PHA 2.5 and 5 μg/ml (FIG. 11)) | effect on PHA activation of PBLs / PHA stimulated T cells [4] | inhibition / effect on growth of resting primary PBLs [5] | Binding Assay (effect on CTLA-4Ig binding to Cess B cells) [6] | IC50 [7] | Human MLR (ability to inhibit lymphocyte proliferation, cpm) ([7]; peptide 12.5 to 100 μM, assays of 1/24, 1/31, 3/6, 4/17, 5/2, one symbol per assay) | human MLR assays in which the peptide was active ([7]; total of 6 human MLR assays) | inhibition / effect on growth of Jurkat cells [8] | inhibition / effect on growth of THP-1 cells [9] |
| --- | --- | --- | --- | --- | --- | --- | --- | --- | --- | --- | --- | --- | --- |
| CTLA-4Ig: Purified CTLA-4Ig fusion protein (murine) produced from a NS-1 cell line as in Steurer et al. 1995 | ~85% | 50% | 80-90% | 20-100 fold | 40-50% | inhibited PHA activation slightly |  |  |  |  |  |  |  |
| CSCC[C@@H]1NC(=O)[C@H](CC(C)C)NC(=O)[C@@H](NC(=O)[C@H](CCCCN)NC(=O)[C@@H](N)CCCNC(=N)N)CSSC[C@@H](C(=O)N[C@@H](Cc2c[nH]cn2)C(=O)N[C@@H](Cc2c[nH]cn2)C(N)=O)NC(=O)[C@H](Cc2ccc(O)cc2)NC(=O)[C@H](Cc2ccc(O)cc2)NC(=O)[C@@H]2CCCN2C(=O)[C@@H]2CCCN2C(=O)[C@@H]2CCCN2C(=O)[C@H](Cc2ccc(O)cc2)NC1=O [AT 199.1, RKCLMYPPPYYCHH] (HELM PEPTIDE1{R.K.C.L.M.Y.P.P.P.Y.Y.C.H.H.[am]}$PEPTIDE1,PEPTIDE1,3:R3-12:R3$$$V2.0; N-terminus assumed) |  |  |  |  |  | only a minor effect; also recorded: did not inhibit | no inhibition; also recorded: No effect | +, +, + | 50 to 100 µM | +, +, + | 5 out of 6 | no inhibition; also recorded: No effect | no inhibition; also recorded: No effect |
